Laboratory results as given in PMC7413254 (Nature Communications, 2020).

Key:
Type in all cases: cell-based
PfCRT^Dd2 [1] = target: T1, PfCRT^Dd2 (Plasmodium falciparum, UniProt Q9N623, A220S/I356T/K76T/M74I/N326S/N75E/Q271E/R371I); assay: [3H]CQ uptake into Xenopus oocytes, cis-inhibition by unlabelled solute; details: PfCRTDd2 oocytes, background [3H]CQ accumulation subtracted, normalised to oocyte type control
Procedure, shortened: (§1)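 PfCRT-expressing and control oocytes: ND96 pH 5.5 → 1.5 h at 27.5 °C → ice-cold ND96 wash → 10% SDS lysis → scintillation count.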

PfCRT^Ecu1110 [2] = target: T2, PfCRT^Ecu1110 (Plasmodium falciparum, UniProt Q9N623, A220S/I356L/K76T/N326D); assay: as above; details: for PfCRT-mediated [3H]CQ transport, cis-inhibition (% PfCRTEcu1110 control): PfCRTEcu1110 oocytes, background [3H]CQ accumulation subtracted, normalised to oocyte type control; for [3H]CQ transport (% PfCRTEcu1110 control), cis-inhibition, PfCRTEcu1110: PfCRT-mediated component (background subtracted), sheet title says normalised to PfCRTDd2 control, mean ± SEM, SEM
T2 sequence (Q9N623 whole entry A220S/I356L/K76T/N326D): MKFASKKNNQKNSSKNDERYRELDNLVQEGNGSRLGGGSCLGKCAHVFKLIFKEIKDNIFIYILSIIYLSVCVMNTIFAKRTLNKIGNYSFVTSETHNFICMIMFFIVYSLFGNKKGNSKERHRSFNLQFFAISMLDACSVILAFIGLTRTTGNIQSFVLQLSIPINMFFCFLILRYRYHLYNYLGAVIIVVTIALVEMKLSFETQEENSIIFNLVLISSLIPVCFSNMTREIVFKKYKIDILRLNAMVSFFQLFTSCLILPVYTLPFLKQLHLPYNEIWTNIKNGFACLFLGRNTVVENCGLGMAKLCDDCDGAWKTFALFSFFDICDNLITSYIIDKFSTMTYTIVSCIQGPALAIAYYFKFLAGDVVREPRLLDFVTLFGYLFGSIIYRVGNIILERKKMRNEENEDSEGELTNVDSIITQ
Procedure, shortened: as §1

PfNT1 = target: T3, PfNT1 (Plasmodium falciparum, UniProt Q8IDM6); assay: cell-based; details: trans-stimulation, solute 45 mM injected (estimated intracellular)
T3 construct: expressed in transfected cells; host or cells: Xenopus laevis oocytes (stage V-VI), cRNA-injected
T3 sequence (Q8IDM6 whole entry): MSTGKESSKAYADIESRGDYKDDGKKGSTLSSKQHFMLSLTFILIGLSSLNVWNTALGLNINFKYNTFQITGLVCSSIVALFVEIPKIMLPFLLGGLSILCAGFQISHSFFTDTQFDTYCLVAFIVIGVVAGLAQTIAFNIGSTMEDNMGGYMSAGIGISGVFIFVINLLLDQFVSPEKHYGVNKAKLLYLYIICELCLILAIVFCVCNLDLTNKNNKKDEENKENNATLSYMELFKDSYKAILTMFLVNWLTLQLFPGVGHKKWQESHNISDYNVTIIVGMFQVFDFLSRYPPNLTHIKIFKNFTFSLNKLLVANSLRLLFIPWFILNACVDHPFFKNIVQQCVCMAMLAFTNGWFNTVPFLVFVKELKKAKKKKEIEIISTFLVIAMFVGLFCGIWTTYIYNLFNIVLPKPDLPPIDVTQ
Procedure, shortened: (§2)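 Transport measured in Xenopus oocytes expressing the transporters, 1.5 h at 27.5 °C in ND96 pH 5.5 unless noted. For trans-stimulation, VF-6 injected in 25 nL ND96 at pH 5.0–7.0 or Na^+-free (choline) buffer; intracellular levels based on ~400 nL oocyte volume. Ten oocytes per treatment, ≥4 experiments.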

PfCRT^Dd2 [3] = target: T1, PfCRT^Dd2; assay: cell-based; details: for PfCRT-mediated [3H]CQ transport, trans-stimulation (% PfCRTDd2 control): PfCRTDd2 oocytes, normalised to oocyte type control; for [3H]CQ transport (% PfCRTDd2 control), trans-stimulation, PfCRTDd2: PfCRT-mediated component (background subtracted), mean ± SEM, SEM
Procedure, shortened: as §2

PfCRT^3D7 = PfCRT^3D7 (Plasmodium falciparum, UniProt Q8IBZ9); assay: cell-based; details: for PfCRT-mediated [3H]CQ transport, trans-stimulation (% PfCRT3D7 control): PfCRT3D7 oocytes, normalised to oocyte type control; for [3H]CQ transport, PfCRT3D7 (% PfCRT3D7 control): trans-stimulation, solute 45 mM injected (estimated intracellular)
Sequence of PfCRT^3D7 (Q8IBZ9 59-398): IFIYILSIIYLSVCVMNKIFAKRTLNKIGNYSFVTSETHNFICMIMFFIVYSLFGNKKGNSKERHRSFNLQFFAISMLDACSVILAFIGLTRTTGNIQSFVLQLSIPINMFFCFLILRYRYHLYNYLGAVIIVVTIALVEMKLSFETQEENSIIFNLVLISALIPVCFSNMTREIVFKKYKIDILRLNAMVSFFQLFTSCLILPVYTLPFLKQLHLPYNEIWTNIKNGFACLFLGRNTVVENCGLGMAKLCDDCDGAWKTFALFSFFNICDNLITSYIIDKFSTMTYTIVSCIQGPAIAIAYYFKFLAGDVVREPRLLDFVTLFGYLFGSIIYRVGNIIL
Procedure, shortened: as §2

PfCRT^Ecu1110 [4] = target: T2, PfCRT^Ecu1110; assay: cell-based; details: for PfCRT-mediated [3H]CQ transport, trans-stimulation (% PfCRTEcu1110 control): PfCRTEcu1110 oocytes, normalised to oocyte type control; for [3H]CQ transport (% PfCRTDd2 control), trans-stimulation, PfCRTEcu1110: PfCRT-mediated component (background subtracted), sheet title says normalised to PfCRTDd2 control, mean ± SEM, SEM
Procedure, shortened: as §2

[5] = [test solute]i = 5 mM (intracellular)
[6] = [test solute]i = 45 mM (intracellular; 30 mM for some solutes due to solubility)
[7] = [test solute]i = 5 mM (injected)
[8] = [test solute]i = 45 mM (30 mM for some solutes due to solubility)

T1 sequence (Q9N623 whole entry A220S/I356T/K76T/M74I/N326S/N75E/Q271E/R371I): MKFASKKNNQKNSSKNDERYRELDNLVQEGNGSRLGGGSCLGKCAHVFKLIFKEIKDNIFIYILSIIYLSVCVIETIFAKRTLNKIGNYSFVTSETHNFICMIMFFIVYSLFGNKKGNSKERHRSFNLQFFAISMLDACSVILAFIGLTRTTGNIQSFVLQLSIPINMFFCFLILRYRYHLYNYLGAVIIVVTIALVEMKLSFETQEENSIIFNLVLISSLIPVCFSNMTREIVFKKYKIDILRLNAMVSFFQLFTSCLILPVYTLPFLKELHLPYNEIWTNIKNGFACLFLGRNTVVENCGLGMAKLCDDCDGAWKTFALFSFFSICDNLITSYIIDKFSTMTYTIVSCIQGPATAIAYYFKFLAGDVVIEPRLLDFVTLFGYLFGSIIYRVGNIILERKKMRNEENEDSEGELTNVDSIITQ

Substance: YFPHF [YF-5]
- PfCRT-mediated [3H]CQ transport, cis-inhibition (% PfCRTDd2 control) (PfCRT^Dd2 [1]; [test solute] = 0.5 mM): 53 ± 3.1 % PfCRTDd2 control
- PfCRT-mediated [3H]CQ transport, cis-inhibition (% PfCRTDd2 control) (PfCRT^Dd2 [1]; [test solute] = 1 mM): 39 ± 2.1 % PfCRTDd2 control
- PfCRT-mediated [3H]CQ transport, cis-inhibition (% PfCRTDd2 control) (PfCRT^Dd2 [1]; [test solute] = 2 mM): 7.2 ± 0.1 % PfCRTDd2 control
- PfCRT-mediated [3H]CQ transport, cis-inhibition (% PfCRTEcu1110 control) (PfCRT^Ecu1110 [2]; [test solute] = 0.5 mM): 63 ± 3.5 % PfCRTEcu1110 control
- PfCRT-mediated [3H]CQ transport, cis-inhibition (% PfCRTEcu1110 control) (PfCRT^Ecu1110 [2]; [test solute] = 1 mM): 48 ± 1.0 % PfCRTEcu1110 control
- PfCRT-mediated [3H]CQ transport, cis-inhibition (% PfCRTEcu1110 control) (PfCRT^Ecu1110 [2]; [test solute] = 2 mM): 32 ± 2.1 % PfCRTEcu1110 control
- [3H]CQ transport (% PfCRTEcu1110 control), cis-inhibition, PfCRTEcu1110 (PfCRT^Ecu1110 [2]; [test solute] = 0.5 mM): 20 ± 0.4 % PfCRTEcu1110 control
- [3H]CQ transport (% PfCRTEcu1110 control), cis-inhibition, PfCRTEcu1110 (PfCRT^Ecu1110 [2]; [test solute] = 1 mM): 15 ± 0.1 % PfCRTEcu1110 control
- [3H]CQ transport (% PfCRTEcu1110 control), cis-inhibition, PfCRTEcu1110 (PfCRT^Ecu1110 [2]; [test solute] = 2 mM): 10 ± 0.3 % PfCRTEcu1110 control
- [3H]CQ transport, PfNT1 (% PfCRTDd2 control) (PfNT1; Experiment 1): 2.73 % PfCRTDd2 control
- [3H]CQ transport, PfNT1 (% PfCRTDd2 control) (PfNT1; Experiment 2): 2.48 % PfCRTDd2 control
- [3H]CQ transport, PfNT1 (% PfCRTDd2 control) (PfNT1; Experiment 3): 2.58 % PfCRTDd2 control
- [3H]CQ transport, PfNT1 (% PfCRTDd2 control) (PfNT1; Experiment 4): 2.37 % PfCRTDd2 control
- PfCRT-mediated [3H]CQ transport, trans-stimulation (% PfCRTDd2 control) (PfCRT^Dd2 [3]; [5]): 97 ± 3.4 % PfCRTDd2 control
- PfCRT-mediated [3H]CQ transport, trans-stimulation (% PfCRTDd2 control) (PfCRT^Dd2 [3]; [6]): 113 ± 2.4 % PfCRTDd2 control
- [3H]CQ transport (% PfCRTDd2 control), trans-stimulation, PfCRTDd2 (PfCRT^Dd2 [3]; [7]): 97 ± 3.4 % PfCRTDd2 control
- [3H]CQ transport (% PfCRTDd2 control), trans-stimulation, PfCRTDd2 (PfCRT^Dd2 [3]; [8]): 113 ± 2.4 % PfCRTDd2 control
- PfCRT-mediated [3H]CQ transport, trans-stimulation (% PfCRT3D7 control) (PfCRT^3D7; [5]): 128 ± 2.3 % PfCRT3D7 control
- PfCRT-mediated [3H]CQ transport, trans-stimulation (% PfCRT3D7 control) (PfCRT^3D7; [6]): 147 ± 4.2 % PfCRT3D7 control
- [3H]CQ transport, PfCRT3D7 (% PfCRT3D7 control) (PfCRT^3D7; Experiment 1): 142.23 % PfCRT3D7 control
- [3H]CQ transport, PfCRT3D7 (% PfCRT3D7 control) (PfCRT^3D7; Experiment 2): 155.33 % PfCRT3D7 control
- [3H]CQ transport, PfCRT3D7 (% PfCRT3D7 control) (PfCRT^3D7; Experiment 3): 162.85 % PfCRT3D7 control
- [3H]CQ transport, PfCRT3D7 (% PfCRT3D7 control) (PfCRT^3D7; Experiment 4): 149.32 % PfCRT3D7 control
- PfCRT-mediated [3H]CQ transport, trans-stimulation (% PfCRTEcu1110 control) (PfCRT^Ecu1110 [4]; [5]): 120 ± 2.7 % PfCRTEcu1110 control
- PfCRT-mediated [3H]CQ transport, trans-stimulation (% PfCRTEcu1110 control) (PfCRT^Ecu1110 [4]; [6]): 131 ± 3.6 % PfCRTEcu1110 control
- [3H]CQ transport (% PfCRTDd2 control), trans-stimulation, PfCRTEcu1110 (PfCRT^Ecu1110 [4]; [7]): 37 ± 1.5 % PfCRTEcu1110 control
- [3H]CQ transport (% PfCRTDd2 control), trans-stimulation, PfCRTEcu1110 (PfCRT^Ecu1110 [4]; [8]): 40 ± 1.5 % PfCRTEcu1110 control
